The target of assay [1] is T1, human muscarinic M4 receptor (Homo sapiens, UniProt P08173).
T1 construct: expressed in transfected cells
T1 sequence (P08173 1-479): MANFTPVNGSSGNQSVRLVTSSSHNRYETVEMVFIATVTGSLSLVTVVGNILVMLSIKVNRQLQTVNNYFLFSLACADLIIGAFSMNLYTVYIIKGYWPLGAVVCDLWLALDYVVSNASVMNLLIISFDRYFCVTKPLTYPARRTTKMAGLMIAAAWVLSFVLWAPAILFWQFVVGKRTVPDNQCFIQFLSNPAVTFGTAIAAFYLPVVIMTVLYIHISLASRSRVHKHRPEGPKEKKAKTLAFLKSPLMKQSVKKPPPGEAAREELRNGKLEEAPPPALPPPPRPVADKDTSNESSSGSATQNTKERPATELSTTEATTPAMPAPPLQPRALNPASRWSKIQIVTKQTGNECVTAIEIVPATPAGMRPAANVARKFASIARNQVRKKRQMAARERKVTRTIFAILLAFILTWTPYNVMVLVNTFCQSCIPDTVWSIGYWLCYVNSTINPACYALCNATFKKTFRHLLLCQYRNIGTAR
Put plainly: Alphascreen Surefire phospho-ERK1/2 functional assay, M4. It is filed as cell-based. The conditions noted are these: for EC50: phospho-ERK1/2, * = variable results; for Emax: CHO.
Protocol: (§1) CHO cells stably expressing the human muscarinic M1, M2, M3 or M4 receptor were plated (25K/well) onto 96-well tissue culture plates in MEM-alpha+10% dialysed FBS. Once adhered, cells were serum-starved overnight. Agonist stimulation was performed by the addition of 5 μL agonist to the cells for 5 min (37° C.). Media was removed and 50 μL of lysis buffer added. After 15 min, a 4 μL sample was transferred to 384-well plate and 7 μL of detection mixture added. Plates were incubated for 2 h with gentle agitation in the dark and then read on a PHERAstar plate reader.
(§2) pEC50 and Emax figures were calculated from the resulting data for each receptor subtype.

The target of assay [2] is T2, human muscarinic M2 receptor (Homo sapiens, UniProt P08172).
T2 sequence (P08172 1-466): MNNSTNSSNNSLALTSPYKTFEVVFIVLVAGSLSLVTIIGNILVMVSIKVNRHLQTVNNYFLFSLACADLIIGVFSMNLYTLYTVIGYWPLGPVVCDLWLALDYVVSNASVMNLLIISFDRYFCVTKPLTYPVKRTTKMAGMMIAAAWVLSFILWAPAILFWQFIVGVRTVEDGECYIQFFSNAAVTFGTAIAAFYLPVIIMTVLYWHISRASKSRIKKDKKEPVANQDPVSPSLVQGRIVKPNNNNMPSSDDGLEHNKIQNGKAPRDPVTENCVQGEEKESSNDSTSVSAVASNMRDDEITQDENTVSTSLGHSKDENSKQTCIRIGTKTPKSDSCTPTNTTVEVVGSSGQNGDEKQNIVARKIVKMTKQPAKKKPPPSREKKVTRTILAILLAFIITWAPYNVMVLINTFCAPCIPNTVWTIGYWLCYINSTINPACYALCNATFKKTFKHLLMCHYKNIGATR
In words: Alphascreen Surefire phospho-ERK1/2 functional assay, M2. The conditions noted are these: for Emax: CHO.
Protocol: as §1, §2

The target of assay [3] is T3, human muscarinic M1 receptor (Homo sapiens, UniProt P11229).
T3 sequence (P11229 1-460): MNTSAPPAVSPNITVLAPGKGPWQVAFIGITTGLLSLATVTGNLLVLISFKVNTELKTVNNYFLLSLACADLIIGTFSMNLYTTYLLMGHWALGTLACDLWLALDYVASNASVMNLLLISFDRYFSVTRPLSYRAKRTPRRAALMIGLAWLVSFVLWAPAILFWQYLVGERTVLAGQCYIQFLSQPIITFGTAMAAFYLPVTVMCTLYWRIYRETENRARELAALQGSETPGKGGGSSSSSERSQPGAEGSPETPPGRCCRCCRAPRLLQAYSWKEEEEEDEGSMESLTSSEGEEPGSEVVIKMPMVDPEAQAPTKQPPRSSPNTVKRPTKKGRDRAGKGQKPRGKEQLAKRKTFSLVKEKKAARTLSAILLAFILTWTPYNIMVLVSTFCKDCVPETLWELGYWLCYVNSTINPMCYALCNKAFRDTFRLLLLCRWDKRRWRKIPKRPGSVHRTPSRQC
Put plainly: Alphascreen Surefire phospho-ERK1/2 functional assay, M1. The format is cell-based. The conditions noted are these: for EC50: phospho-ERK1/2, * = variable results; for Emax: CHO.

In assay [4] the target is human muscarinic M3 receptor (Homo sapiens, UniProt P20309). In words: Alphascreen Surefire phospho-ERK1/2 functional assay, M3. The conditions noted are these: for EC50: pEC50 M3, CHO cells stably expressing human M3; for Emax: CHO.
Chain of human muscarinic M3 receptor (P20309 whole entry): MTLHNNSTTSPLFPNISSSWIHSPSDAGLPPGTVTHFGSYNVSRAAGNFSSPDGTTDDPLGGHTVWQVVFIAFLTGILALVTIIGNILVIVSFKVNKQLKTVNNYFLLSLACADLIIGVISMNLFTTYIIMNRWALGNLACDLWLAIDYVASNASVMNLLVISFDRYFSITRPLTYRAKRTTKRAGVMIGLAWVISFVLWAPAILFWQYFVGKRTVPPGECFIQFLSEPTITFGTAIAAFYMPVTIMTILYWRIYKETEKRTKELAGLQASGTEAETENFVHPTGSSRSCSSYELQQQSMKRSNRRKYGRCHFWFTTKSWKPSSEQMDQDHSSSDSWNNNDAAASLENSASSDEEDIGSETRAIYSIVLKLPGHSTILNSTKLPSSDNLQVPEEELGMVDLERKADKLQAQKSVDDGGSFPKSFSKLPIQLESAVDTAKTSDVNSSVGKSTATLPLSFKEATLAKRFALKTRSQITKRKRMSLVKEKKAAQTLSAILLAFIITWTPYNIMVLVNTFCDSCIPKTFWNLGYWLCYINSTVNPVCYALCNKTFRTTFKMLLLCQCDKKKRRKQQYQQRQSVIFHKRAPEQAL
The mark [5] stands for this setting: CHO cells stably expressing human M4, read-out: pEC50 M4 (converted).
The mark [6] stands for this setting: CHO cells stably expressing human M1, read-out: pEC50 M1 (converted).
Setting [7] is: read-out: % Emax cf. ACh, M1, CHO cells stably expressing human M1, relative to ACh.
Where [8] appears, read: phospho-ERK1/2, * = variable results.
[9] abbreviates: read-out: % Emax cf. ACh, M4, CHO cells stably expressing human M4, relative to ACh.
[10] abbreviates: read-out: % Emax cf. ACh, M2, CHO cells stably expressing human M2, relative to ACh.
The mark [11] stands for this setting: read-out: % Emax cf. ACh, M3, CHO cells stably expressing human M3, relative to ACh.
Where [12] appears, read: CHO cells stably expressing human M4, relative to ACh.
[13] abbreviates: CHO cells stably expressing human M2, relative to ACh.
Where [14] appears, read: CHO cells stably expressing human M1, relative to ACh.

Like-named read-outs stand apart in the source and are kept apart here. Some results are limits rather than exact numbers.

Regarding `CCOC(=O)N1CCC2(CC(N3CCC(c4ccnn4C)CC3)C2)C1` (single isomer, unassigned) [1-21 Isomer 2, ethyl 2-[4-(1-methyl-1H-pyrazol-5-yl)piperidin-1-yl]-6-azaspiro[3.4]octane-6-carboxylate], the EC50 was 0.0398 µM in assay [1] (setting [5]), above 20 µM in assay [2], above 20 µM in assay [3] (setting [6]) and above 20 µM in assay [4] (setting [8]). For the same compound, the Emax in assay [3] (setting [7]) came to 11%.
As for `CCOC(=O)N1CCC2(CC(N3CCC(c4ncco4)CC3)C2)C1` (single isomer, unassigned) [1-23 Isomer 2, ethyl 2-[4-(1,3-oxazol-2-yl)piperidin-1-yl]-6-azaspiro[3.4]octane-6-carboxylate], the EC50 in assay [1] (setting [5]) is 0.0316 µM; in assay [2] it was above 20 µM; in assay [3] (setting [6]), 0.398 µM; in assay [4] (setting [8]), above 20 µM. The Emax in assay [1] (setting [9]) is 105%; in assay [2] (setting [10]) it was 7%; in assay [3] (setting [7]), 55%; in assay [4] (setting [11]) it was 9%.
For the compound `COC(=O)N1CCC2(CC(N3CCC(c4nccs4)CC3)C2)C1` (single isomer, unassigned) [1-24 Isomer 2, methyl 2-[4-(1,3-thiazol-2-yl)piperidin-1-yl]-6-azaspiro[3.4]octane-6-carboxylate], the EC50 in assay [1] (setting [5]) was 0.0251 µM; in assay [2] it was 6.31 µM; in assay [3] (setting [6]), 0.251 µM; in assay [4] (setting [8]), above 20 µM. The Emax in assay [1] (setting [9]) stood at 78%; in assay [2] (setting [10]), 32%; in assay [3] (setting [7]), 102%; in assay [4] (setting [11]), 0%.
Take `CCOC(=O)N1CCC2(CC(N3CCC(c4nccs4)CC3)C2)C1` (single isomer, unassigned) [1-25 Isomer 2, ethyl 2-[4-(1,3-thiazol-2-yl)piperidin-1-yl]-6-azaspiro[3.4]octane-6-carboxylate]: the EC50 was 0.00398 µM in assay [1] (setting [5]), above 20 µM in assay [2], 0.0501 µM in assay [3] (setting [6]) and above 20 µM in assay [4] (setting [8]). Also, the Emax is 128% in assay [1] (setting [9]), 15% in assay [2] (setting [10]), 110% in assay [3] (setting [7]) and 13% in assay [4] (setting [11]).
As for `CCOC(=O)N1CCC2(CC(N3CCC(c4nnc[nH]4)CC3)C2)C1` (single isomer, unassigned) [1-26 Isomer 2, ethyl 2-[4-(4H-1,2,4-triazol-3-yl)piperidin-1-yl]-6-azaspiro[3.4]octane-6-carboxylate], the EC50 in assay [1] (setting [5]) was 0.2 µM; in assay [2], above 20 µM; in assay [3] (setting [6]), 2.51 µM; in assay [4] (setting [8]) it was 0.794 µM. For the same compound, the Emax in assay [1] (setting [9]) is 76%; in assay [2] (setting [10]) it was 99%; in assay [3] (setting [7]) it was 46%; in assay [4] (setting [11]), 53%.
Regarding `CCOC(=O)N1CCC2(CC(N3CCC(c4ncns4)CC3)C2)C1` (single isomer, unassigned) [1-30 Isomer 2, ethyl 2-[4-(1,2,4-thiadiazol-5-yl)piperidin-1-yl]-6-azaspiro[3.4]octane-6-carboxylate], the EC50 in assay [1] (setting [5]) was 0.0126 µM; in assay [2] it was above 20 µM; in assay [3] (setting [6]), 0.316 µM; in assay [4] (setting [8]), above 20 µM. Further, the Emax in assay [1] (setting [9]) is 101%; in assay [2] (setting [10]), 9%; in assay [3] (setting [7]), 37%; in assay [4] (setting [11]), 5%.
`CCOC(=O)N1CCC2(CC(N3CCC(n4cccc4)CC3)C2)C1` (single isomer, unassigned) [1-32 Isomer 2, ethyl 2-[4-(1H-pyrrol-1-yl)piperidin-1-yl]-6-azaspiro[3.4]octane-6-carboxylate]: the EC50 is 0.00631 µM in assay [1] (setting [5]), above 20 µM in assay [2], 0.0794 µM in assay [3] (setting [6]) and above 20 µM in assay [4] (setting [8]). Besides, the Emax in assay [1] (setting [9]) is 126%; in assay [2] (setting [10]), 56%; in assay [3] (setting [7]), 113%; in assay [4] (setting [11]), 16%.
With `CCOC(=O)N1CCC2(CC(N3CCC(n4cc(C)cn4)CC3)C2)C1` (single isomer, unassigned) [1-34 Isomer 1, ethyl 2-[4-(4-methyl-1H-pyrazol-1-yl)piperidin-1-yl]-6-azaspiro[3.4]octane-6-carboxylate], the EC50 in assay [1] (setting [5]) is 0.158 µM; in assay [2], above 20 µM; in assay [3] (setting [6]) it was 0.501 µM; in assay [4] (setting [8]) it was above 20 µM. Moreover, in assay [1] (setting [12]), the “% Emax cf. ACh, M4” value is reported as 48%. In addition, in assay [2] (setting [13]), the “% Emax cf. ACh, M2” value was found to be 10%. The “% Emax cf. ACh, M1” value in assay [3] (setting [14]) was found to be 49%. The Emax in assay [4] (setting [11]) was 0%.
`CCOC(=O)N1CCC2(CC(N3CCC(n4cc(C)cn4)CC3)C2)C1` (single isomer, unassigned) [1-34 Isomer 2, ethyl 2-[4-(4-methyl-1H-pyrazol-1-yl)piperidin-1-yl]-6-azaspiro[3.4]octane-6-carboxylate]: the results for the EC50 in assay [1] (setting [5]) and in assay [3] (setting [6]) were 0.00251 µM and 0.00794 µM, respectively. Further, the “% Emax cf. ACh, M4” value in assay [1] (setting [12]) is on record as 117%. Besides, the “pEC50 M2” value in assay [2] (CHO cells stably expressing human M2, phospho-ERK1/2, * = variable results) is given as below 4.7. Moreover, in assay [2] (setting [13]), the “% Emax cf. ACh, M2” value is recorded as 43%. The “% Emax cf. ACh, M1” value in assay [3] (setting [14]) was found to be 130%. The “pEC50 M3” value in assay [4] (CHO cells stably expressing human M3, phospho-ERK1/2, * = variable results) is below 4.7. In addition, in assay [4] (CHO cells stably expressing human M3, relative to ACh), the “% Emax cf. ACh, M3” value is given as 0%.
In the case of `CCOC(=O)N1CCC2(CC(N3CCC(OC)(c4ncc[nH]4)CC3)C2)C1` (single isomer, unassigned) [1-38 Isomer 2, ethyl 2-[4-(1H-imidazol-2-yl)-4-methoxypiperidin-1-yl]-6-azaspiro[3.4]octane-6-carboxylate], the Emax amounted to 98% in assay [1] (read-out: % Emax cf. ACh, M4); 14% in assay [2] (read-out: % Emax cf. ACh, M2); 31% in assay [3] (read-out: % Emax cf. ACh, M1); 19% in assay [4] (read-out: % Emax cf. ACh, M3). Moreover, the EC50 is 0.794 µM in assay [1] (pEC50 M4, CHO cells stably expressing human M4); above 20 µM in assay [2]; 0.1 µM in assay [3] (pEC50 M1, CHO cells stably expressing human M1); above 20 µM in assay [4] (setting [8]).
With `COC(=O)N1CCC2(CC(N3CCC(n4cc(C)cn4)CC3)C2)C1` (single isomer, unassigned) [1-42 Isomer 2, methyl 2-[4-(4-methyl-1H-pyrazol-1-yl)piperidin-1-yl]-6-azaspiro[3.4]octane-6-carboxylate], the EC50 in assay [1] (setting [5]) was 0.00631 µM; in assay [2], 0.316 µM; in assay [3] (setting [6]), 0.0398 µM; in assay [4] (setting [8]), above 20 µM. Moreover, the Emax in assay [1] (setting [9]) is 76%; in assay [2] (setting [10]), 27%; in assay [3] (setting [7]), 123%; in assay [4] (setting [11]) it was 16%.
For the compound `CCOC(=O)N1CCC2(CC(N3CCC(c4ccon4)CC3)C2)C1` (single isomer, unassigned) [1-43 Isomer 2, ethyl 2-[4-(1,2-oxazol-3-yl)piperidin-1-yl]-6-azaspiro[3.4]octane-6-carboxylate], the EC50 in assay [1] (setting [5]) is 0.0316 µM; in assay [2], above 20 µM; in assay [3] (setting [6]), 0.158 µM; in assay [4] (setting [8]), above 20 µM. The Emax in assay [1] (setting [9]) was 61%; in assay [2] (setting [10]), 7%; in assay [3] (setting [7]), 32%; in assay [4] (setting [11]) it was 8%.

The values above are taken from patent publication US9926297B2, “Bicyclic AZA compounds as muscarinic M1 receptor and/or M4 receptor agonists” (Heptares Therapeutics Limited, priority 2014, dated 2018).
